Laboratory results published in BindingDB's records for doi:10.7270/Q2H993J6 (Pcmd, 2008).

Target: Coagulation factor XI (Homo sapiens, UniProt P03951)
Assay: factor XIa inhibitor concentration-response – biochemical, hits from 1536-well screen, dose response (AID 846)
Settings: pH 7.4; 23 °C

Sequence of Coagulation factor XI (P03951 19-387 limits assumed): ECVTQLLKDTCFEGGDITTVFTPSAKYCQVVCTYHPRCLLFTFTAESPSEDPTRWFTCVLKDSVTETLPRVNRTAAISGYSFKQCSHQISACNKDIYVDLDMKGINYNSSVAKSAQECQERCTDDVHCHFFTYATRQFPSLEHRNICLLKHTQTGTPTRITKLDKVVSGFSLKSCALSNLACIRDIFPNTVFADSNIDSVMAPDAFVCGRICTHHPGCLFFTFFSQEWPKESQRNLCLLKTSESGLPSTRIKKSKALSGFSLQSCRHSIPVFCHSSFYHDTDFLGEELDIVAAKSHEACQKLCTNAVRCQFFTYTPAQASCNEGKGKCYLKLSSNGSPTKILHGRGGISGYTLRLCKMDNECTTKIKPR
Sequence of Coagulation factor XI (P03951 388-625 limits assumed): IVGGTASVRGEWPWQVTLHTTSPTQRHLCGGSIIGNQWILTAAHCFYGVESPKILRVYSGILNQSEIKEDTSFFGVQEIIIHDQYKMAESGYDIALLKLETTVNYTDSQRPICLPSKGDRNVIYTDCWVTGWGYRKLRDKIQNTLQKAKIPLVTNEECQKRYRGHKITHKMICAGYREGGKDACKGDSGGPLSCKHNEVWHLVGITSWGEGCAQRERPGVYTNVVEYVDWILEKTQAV

| Compound | IC50 [µM] |
| --- | --- |
| Cn1nc(C(=O)Nc2nc(-c3ccc(F)cc3)cs2)ccc1=O [N-[4-(4-fluorophenyl)-1,3-thiazol-2-yl]-1-methyl-6-oxopyridazine-3-carboxamide] | > 50 |
| CC(Cc1ccccc1)=NNC(=O)CNC(=O)C=Cc1ccccc1 [(Z)-N-[2-oxo-2-[2-(1-phenylpropan-2-ylidene)hydrazinyl]ethyl]-3-phenyl-2-propenamide] | > 50 |
| CCn1c(C)nc2cc(C(=O)NN=C(C)c3ccc(OC)cc3O)ccc21 [1-ethyl-N'-[(1E)-1-(4-methoxy-6-oxidanylidene-cyclohexa-2,4-dien-1-ylidene)ethyl]-2-methyl-benzimidazole-5-carbohydrazide] | > 50 |
| O=C(CSc1ncccn1)NN=Cc1cccc(OC2CSC2)c1 | > 50 |
| S=C(NCCc1ccccc1)Nc1ccc(Br)cn1 [3-(5-bromopyridin-2-yl)-1-(2-phenylethyl)thiourea] | > 50 |
| CC(C)CNC(=O)Nc1ccc(F)c(Cl)c1 [MLS000679438] | > 50 |
| CCN(CC)CCNC(=O)c1ccc(NC(=O)c2cccc(S(=O)(=O)Nc3ccc(C)cc3)c2)cc1 [potassium;[3-[[4-[2-(diethylamino)ethylcarbamoyl]phenyl]carbamoyl]phenyl]sulfonyl-(4-methylphenyl)azanide] | > 50 |
| CCN1CCN(CC(=O)Nc2cc(C)on2)CC1 [2-(4-ethylpiperazin-1-yl)-N-(5-methyl-1,2-oxazol-3-yl)acetamide;oxalic acid] | > 50 |
| Cc1cccc(NC(=O)c2cc(-n3c(O)ccc3O)ccc2Cl)n1 | > 50 |
| Cc1ccc(NC2=NC3(CCCCC3)N=C(N)N2)c(C)c1 [N4-(2,4-dimethylphenyl)-1,3,5-triazaspiro[5.5]undeca-1,4-diene-2,4-diamine] | > 50 |
| Cc1cc(F)ccc1S(=O)(=O)Nc1ncnc2sc3c(c12)CCC3 [N-(7,8-dihydro-6H-cyclopenta[4,5]thieno[1,2-c]pyrimidin-1-yl)-4-fluoro-2-methylbenzenesulfonamide] | > 50 |
| CCCN(CCC)S(=O)(=O)c1ccc(C(=O)NNc2nc(-c3ccccc3)c3cc(Br)ccc3n2)cc1 [4-[[(6-bromo-4-phenylquinazolin-2-yl)amino]carbamoyl]-N,N-dipropylbenzenesulfonamide] | > 50 |
| O=C(O)c1ccc(N=C(NS(=O)(=O)c2ccc(Cl)cc2)c2ccccc2)cc1 [4-({[(E)-4-Chloro-benzenesulfonylimino]-phenyl-methyl}-amino)-benzoic acid] | > 50 |
| CC(Cc1ccccc1)=NNC(=O)CNC(=O)c1ccccc1Cl [2-chloro-N-[2-oxo-2-[2-(1-phenylpropan-2-ylidene)hydrazinyl]ethyl]benzamide] | > 50 |
| COc1ccccc1CC(=O)NCc1csc(-c2cccs2)n1 [MLS000859819] | > 50 |
| COc1ccc(N(CC(=O)NCc2ccc(Cl)cc2)S(=O)(=O)c2ccccc2[N+](=O)[O-])c(OC)c1 [N-[(4-chlorophenyl)methyl]-2-(2,4-dimethoxy-N-(2-nitrophenyl)sulfonylanilino)acetamide] | > 50 |
| CN1C(=O)C(=NOC(=O)c2ccccc2)c2ccccc21 [MLS000556117] | 25.9 |
| O=C(O)c1ccc(/C=C2\SC(=S)N(Nc3ccccc3)C2=O)cc1 [4-[4-Oxo-3-phenylamino-2-thioxo-thiazolidin-(5Z)-ylidenemethyl]-benzoic acid] | > 50 |
| Cc1cc(NS(=O)(=O)c2ccc(N3C(=O)C4C5C=CC(C5)C4C3=O)cc2)nc(C)n1 (centres undefined) [N-(2,6-dimethyl-4-pyrimidinyl)-4-(3,5-dioxo-4-azatricyclo[5.2.1.0~2,6~]dec-8-en-4-yl)benzenesulfonamide] | > 50 |
| N#C/C(=C\c1cccnc1)c1nc2ccccc2[nH]1 [(E)-2-(1H-Benzoimidazol-2-yl)-3-pyridin-3-yl-acrylonitrile] | > 50 |
| O=C(Nc1nc(-c2cccs2)cs1)c1ccc(Cl)cc1 [4-chloro-N-(4-thiophen-2-yl-2-thiazolyl)benzamide] | 17.3 |
| CNC(=S)N1CCC(NC(=O)c2ccco2)CC1 [N-[1-(methylcarbamothioyl)piperidin-4-yl]furan-2-carboxamide] | > 50 |
| O=C(COC(=O)CCc1nc2ccccc2c(=O)[nH]1)Nc1ccc(Cl)cn1 [[2-[(5-chloropyridin-2-yl)amino]-2-oxoethyl] 3-(4-oxo-1H-quinazolin-2-yl)propanoate] | > 50 |
| CC/C=C/C(=O)N1CC2(CC(c3cccc(NC(=O)CCCCC)c3)=NO2)C[C@H]1C(N)=O (stereo partly drawn) [(8S)-3-[3-(hexanoylamino)phenyl]-7-[(E)-pent-2-enoyl]-1-oxa-2,7-diazaspiro[4.4]non-2-ene-8-carboxamide] | 9.23 |

| Compound | IC50 [µM] |
| --- | --- |
| COc1cc2c(cc1/C=C/[N+](=O)[O-])OCO2 [MLS000706395] | > 50 |
| CCOC(=O)c1sc(NC(=O)CSC(=S)N2CCN(C)CC2)nc1C [MLS000332299] | > 50 |
| COc1ccc(S(=O)(=O)NCc2c(-c3ccccc3)noc2C)c(OC)c1 | > 50 |
| CN(C)c1ccc(C(=S)N2CCN(c3ccc([N+](=O)[O-])cc3)CC2)cc1 [MLS001033622] | > 50 |
| Cc1n[nH]c(C)c1CCC(=O)NN=Cc1c[nH]c2ccccc12 [3-(3,5-Dimethyl-1H-pyrazol-4-yl)-propionic acid [1-(1H-indol-3-yl)-meth-(E)-ylidene]-hydrazide] | > 50 |
| Cc1cc(C(=O)Cn2nc(C(=O)O)c3ccccc3c2=O)c(C)n1-c1cccc(C(F)(F)F)c1 | > 50 |
| NC[C@H](O)c1ccc(O)cc1 [SMR000058358] | > 50 |
| CCOC(=O)CSc1nnc(-c2ccccc2)o1 [MLS000526656] | > 50 |
| COc1cc([N+](=O)[O-])cc2sc(NC(C)=O)nc12 [MLS000708454] | > 50 |
| Cc1ccc(NS(=O)(=O)c2ccc(C(=O)OCC(=O)Nc3cc(C)on3)cc2)cc1 [[2-[(5-methyl-1,2-oxazol-3-yl)amino]-2-oxoethyl] 4-[(4-methylphenyl)sulfamoyl]benzoate] | > 50 |
| Cc1ccc(C)c(S(=O)(=O)ON2C(=O)c3ccccc3C2=O)c1 [2,5-dimethylbenzenesulfonic acid (1,3-dioxo-2-isoindolyl) ester] | 0.762 |
| COc1ccc(C(=O)NN=Cc2cc3ccccc3[nH]c2=O)cc1 | > 50 |
| Cc1ccc(C(=O)NNC(=S)NC(=O)COc2ccccc2)cc1 [N-[[(4-methylbenzoyl)amino]carbamothioyl]-2-phenoxyacetamide] | 3 |
| Cc1sc2c(c1C)C(=O)NC(c1cccc(O)c1)N2 (centres undefined) [2-(3-hydroxyphenyl)-5,6-dimethyl-2,3-dihydrothieno[2,3-d]pyrimidin-4(1H)-one] | > 50 |
| Clc1ccccc1Cn1nnc2c(NCCN3CCOCC3)ncnc21 [3-[(2-chlorophenyl)methyl]-N-(2-morpholin-4-ylethyl)triazolo[4,5-d]pyrimidin-7-amine] | > 50 |
| CC1=CCC2C(=O)N(C(C)c3ccccc3)C(=O)C2C1 (centres undefined) [5-methyl-2-(1-phenylethyl)-3a,4,7,7a-tetrahydro-1H-isoindole-1,3(2H)-dione] | > 50 |
| O=C(Cc1cccs1)Nc1nnc(CCc2ccccc2)s1 [MLS000064221] | > 50 |
| Cc1cc(C)cc(NC(=O)c2ccc([N+](=O)[O-])o2)c1 [MLS000710428] | > 50 |
| O=C1c2ccccc2C(=O)N1OS(=O)(=O)c1ccccc1 [Benzenesulfonic acid 1,3-dioxo-1,3-dihydro-isoindol-2-yl ester] | 1.4 |
| Cc1nc2ccccc2c(=O)n1NC(=O)c1cc(Br)ccc1Cl | > 50 |
| COc1ccc(C)cc1NC(=O)COC(=O)C1CCN(C(=O)c2ccc(Cl)cc2)CC1 [[2-[(2-methoxy-5-methyl-phenyl)amino]-2-oxidanylidene-ethyl] 1-(4-chlorophenyl)carbonylpiperidine-4-carboxylate] | > 50 |
| C/C=C(\C)C(=O)OC1c2c(ccc3ccc(=O)oc23)OC(C)(C)C1OC(C)=O (centres undefined) [MLS000121833] | > 50 |
| O=C(NCc1ccco1)C1CC(c2ccccc2C(F)(F)F)=NO1 (centres undefined) [N-(2-furanylmethyl)-3-[2-(trifluoromethyl)phenyl]-4,5-dihydroisoxazole-5-carboxamide] | > 50 |
| Oc1cc(N2CCC(c3nc4ccccc4o3)CC2)c(O)n1-c1ccc(Cl)c(C(F)(F)F)c1 [3-[4-(1,3-benzoxazol-2-yl)piperidin-1-yl]-1-[4-chloranyl-3-(trifluoromethyl)phenyl]pyrrolidine-2,5-dione] | > 50 |

Next, values leading:

| IC50 [µM] | Compound |
| --- | --- |
| > 50 | COCCNCC(=O)Nc1nc(C)cs1 [SMR000287473] |
| > 50 | O=C(Nc1nc(-c2ccccc2)cs1)c1ccc(S(=O)(=O)N2CCc3ccccc32)cc1 [SMR000235796] |
| > 50 | O=C(c1cc(Cl)nc2ccccc12)N1CCc2ccccc2C1 [SMR000347901] |
| > 50 | COc1ccc(Cl)cc1NC(=O)Nc1cn(C)nc1C [SMR000458292] |
| > 50 | COc1cccc(C=NNC(=O)c2[nH]c(C)c(C(=O)NN=Cc3cccc(OC)c3O)c2C)c1O [SMR000162187] |
| 14 | CCCCCCCc1c(O)nc(SCCN(C)C)[nH]c1=O [SMR000414668] |
| > 50 | COc1cc(C2SCC(=O)N2c2c(C)n(C)n(-c3ccccc3)c2=O)ccc1O (centres undefined) [SMR000414946] |
| > 50 | CC(C)(C)C(=O)Nc1ccc(C(=O)NN=Cc2ccccc2OC(=O)c2ccccc2)cc1 [SMR000174811] |
| 6.52 | COc1ccc(NCC(=O)Nc2cc(S(=O)(=O)N3CCOCC3)ccc2N2CCOCC2)c(OC)c1 [SMR000371196] |
| > 50 | COc1ccc(N2C(=O)C(Cl)=C(N3CCCC(C)C3)C2=O)cc1 (centres undefined) [SMR000142424] |
| > 50 | C=CCNC(=S)N[N-][CH+]c1ccc(C)c([N+](=O)[O-])c1 [SMR000228955] |
| > 50 | Cc1nn(C)c(C)c1C=C(C(=O)C(C)C)n1cncn1 [SMR000427822] |
| 7.75 | COc1ccccc1/N=C/c1nc(-c2ccccc2)oc1OC(C)=O [SMR000039734] |
| > 50 | O=C(O)CCCC(=O)N1N=C(c2ccccc2)CC1c1cccs1 (centres undefined) [SMR000414955] |
| > 50 | O=C(Cn1[nH]c(=O)c2ccccc2c1=O)Nc1cccc(S(=O)(=O)N2CCCCCC2)c1 [SMR000369234] |
| > 50 | O=[N+]([O-])c1ccc(OCCO)c(P(=O)(c2ccccc2)c2ccccc2)c1 [SMR000420001] |
